{"source": "the supplement of paper PMC10307832", "assay_in_all_cases": "relative viability (nuclei count vs DMSO), 5 days (fraction); higher = more cells survive", "key": {"EPLC-272H": {"test_system": "EPLC-272H", "outline": "(§1)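 Relative viability was taken as the ratio of nuclei in treated wells to nuclei in vehicle wells. Lung cancer cell lines in 1536-well plates received compounds by pin tool one day after seeding, either one drug alone or a fixed anchor-drug dose plus five library-drug doses (not always all listed) in √10 steps. Nuclei were counted on 4× images after 5 days of treatment, and values are medians of duplicate plates.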"}, "NCI-H647": {"test_system": "NCI-H647", "outline": "as §1"}, "NCI-H2347": {"test_system": "NCI-H2347", "outline": "as §1"}, "NCI-H441": {"test_system": "NCI-H441", "outline": "as §1"}, "NCI-H3122": {"test_system": "NCI-H3122", "outline": "as §1"}, "NCI-H1734": {"test_system": "NCI-H1734", "outline": "as §1"}, "H3255": {"test_system": "H3255", "outline": "as §1"}, "HCC-15": {"test_system": "HCC-15", "outline": "as §1"}, "NCI-H2170": {"test_system": "NCI-H2170", "outline": "as §1"}, "NCI-H322M": {"test_system": "NCI-H322M", "outline": "as §1"}, "NCI-H2405": {"test_system": "NCI-H2405", "outline": "as §1"}, "PC-14": {"test_system": "PC-14", "outline": "as §1"}, "LOU-NH91": {"test_system": "LOU-NH91", "outline": "as §1"}, "NCI-H1793": {"test_system": "NCI-H1793", "outline": "as §1"}, "201T": {"test_system": "201T", "outline": "as §1"}, "SW 900": {"test_system": "SW 900", "outline": "as §1"}}, "data": [{"smiles": "O=c1cc(N2CCOCC2)oc2c(-c3cccc4c3sc3ccccc34)cccc12", "note": "+ NC(=O)Nc1cc(-c2cccc(F)c2)sc1C(=O)N[C@H]1CCCNC1 [AZD7762] (partner 0.2 µM)", "values": [{"measurement": "relative viability", "setting": "EPLC-272H; first compound 0.01 µM", "value": 0.244}, {"measurement": "relative viability", "setting": "EPLC-272H; first compound 0.03162 µM", "value": 0.282}, {"measurement": "relative viability", "setting": "EPLC-272H; first compound 0.1 µM", "value": 0.12}, {"measurement": "relative viability", "setting": "EPLC-272H; first compound 0.3162 µM", "value": 0.31}, {"measurement": "relative viability", "setting": "EPLC-272H; first compound 1 µM", "value": 0.211}, {"measurement": "relative viability", "setting": "NCI-H647; first compound 0.01 µM", "value": 0.371}, {"measurement": "relative viability", "setting": "NCI-H647; first compound 0.03162 µM", "value": 0.486}, {"measurement": "relative viability", "setting": "NCI-H647; first compound 0.1 µM", "value": 0.0676}, {"measurement": "relative viability", "setting": "NCI-H647; first compound 0.3162 µM", "value": 0.515}, {"measurement": "relative viability", "setting": "NCI-H647; first compound 1 µM", "value": 0.363}, {"measurement": "relative viability", "setting": "NCI-H2347; first compound 0.01 µM", "value": 0.843}, {"measurement": "relative viability", "setting": "NCI-H2347; first compound 0.03162 µM", "value": 0.791}, {"measurement": "relative viability", "setting": "NCI-H2347; first compound 0.1 µM", "value": 0.601}, {"measurement": "relative viability", "setting": "NCI-H2347; first compound 0.3162 µM", "value": 0.714}, {"measurement": "relative viability", "setting": "NCI-H2347; first compound 1 µM", "value": 0.601}, {"measurement": "relative viability", "setting": "NCI-H441; first compound 0.01 µM", "value": 1.06}, {"measurement": "relative viability", "setting": "NCI-H441; first compound 0.03162 µM", "value": 1.03}, {"measurement": "relative viability", "setting": "NCI-H441; first compound 0.1 µM", "value": 1.09}, {"measurement": "relative viability", "setting": "NCI-H441; first compound 0.3162 µM", "value": 1.2}, {"measurement": "relative viability", "setting": "NCI-H441; first compound 1 µM", "value": 1.01}, {"measurement": "relative viability", "setting": "NCI-H3122; first compound 0.01 µM", "value": 1.01}, {"measurement": "relative viability", "setting": "NCI-H3122; first compound 0.03162 µM", "value": 0.976}, {"measurement": "relative viability", "setting": "NCI-H3122; first compound 0.1 µM", "value": 0.731}, {"measurement": "relative viability", "setting": "NCI-H3122; first compound 0.3162 µM", "value": 0.99}, {"measurement": "relative viability", "setting": "NCI-H3122; first compound 1 µM", "value": 0.973}, {"measurement": "relative viability", "setting": "NCI-H1734; first compound 0.01 µM", "value": 0.604}, {"measurement": "relative viability", "setting": "NCI-H1734; first compound 0.03162 µM", "value": 0.568}, {"measurement": "relative viability", "setting": "NCI-H1734; first compound 0.1 µM", "value": 0.112}, {"measurement": "relative viability", "setting": "NCI-H1734; first compound 0.3162 µM", "value": 0.596}, {"measurement": "relative viability", "setting": "NCI-H1734; first compound 1 µM", "value": 0.494}, {"measurement": "relative viability", "setting": "H3255; first compound 0.01 µM", "value": 0.901}, {"measurement": "relative viability", "setting": "H3255; first compound 0.03162 µM", "value": 0.933}, {"measurement": "relative viability", "setting": "H3255; first compound 0.1 µM", "value": 0.845}, {"measurement": "relative viability", "setting": "H3255; first compound 0.3162 µM", "value": 0.822}, {"measurement": "relative viability", "setting": "H3255; first compound 1 µM", "value": 0.852}, {"measurement": "relative viability", "setting": "HCC-15; first compound 0.01 µM", "value": 1.23}, {"measurement": "relative viability", "setting": "HCC-15; first compound 0.03162 µM", "value": 1.46}, {"measurement": "relative viability", "setting": "HCC-15; first compound 0.1 µM", "value": 1.3}, {"measurement": "relative viability", "setting": "HCC-15; first compound 0.3162 µM", "value": 1.26}, {"measurement": "relative viability", "setting": "HCC-15; first compound 1 µM", "value": 1.54}, {"measurement": "relative viability", "setting": "NCI-H2170; first compound 0.01 µM", "value": 0.78}, {"measurement": "relative viability", "setting": "NCI-H2170; first compound 0.03162 µM", "value": 0.945}, {"measurement": "relative viability", "setting": "NCI-H2170; first compound 0.1 µM", "value": 0.734}, {"measurement": "relative viability", "setting": "NCI-H2170; first compound 0.3162 µM", "value": 0.842}, {"measurement": "relative viability", "setting": "NCI-H2170; first compound 1 µM", "value": 0.852}, {"measurement": "relative viability", "setting": "NCI-H322M; first compound 0.01 µM", "value": 0.578}, {"measurement": "relative viability", "setting": "NCI-H322M; first compound 0.03162 µM", "value": 0.589}, {"measurement": "relative viability", "setting": "NCI-H322M; first compound 0.3162 µM", "value": 0.595}, {"measurement": "relative viability", "setting": "NCI-H322M; first compound 1 µM", "value": 0.581}, {"measurement": "relative viability", "setting": "NCI-H2405; first compound 0.01 µM", "value": 0.7}, {"measurement": "relative viability", "setting": "NCI-H2405; first compound 0.03162 µM", "value": 0.727}, {"measurement": "relative viability", "setting": "NCI-H2405; first compound 0.1 µM", "value": 0.552}, {"measurement": "relative viability", "setting": "NCI-H2405; first compound 0.3162 µM", "value": 0.787}, {"measurement": "relative viability", "setting": "NCI-H2405; first compound 1 µM", "value": 0.827}, {"measurement": "relative viability", "setting": "PC-14; first compound 0.01 µM", "value": 0.306}, {"measurement": "relative viability", "setting": "PC-14; first compound 0.03162 µM", "value": 0.322}, {"measurement": "relative viability", "setting": "PC-14; first compound 0.1 µM", "value": 0.116}, {"measurement": "relative viability", "setting": "PC-14; first compound 0.3162 µM", "value": 0.516}, {"measurement": "relative viability", "setting": "PC-14; first compound 1 µM", "value": 0.27}, {"measurement": "relative viability", "setting": "LOU-NH91; first compound 0.01 µM", "value": 0.755}, {"measurement": "relative viability", "setting": "LOU-NH91; first compound 0.03162 µM", "value": 0.785}, {"measurement": "relative viability", "setting": "LOU-NH91; first compound 0.1 µM", "value": 0.803}, {"measurement": "relative viability", "setting": "LOU-NH91; first compound 0.3162 µM", "value": 0.78}, {"measurement": "relative viability", "setting": "LOU-NH91; first compound 1 µM", "value": 0.751}, {"measurement": "relative viability", "setting": "NCI-H1793; first compound 0.01 µM", "value": 0.593}, {"measurement": "relative viability", "setting": "NCI-H1793; first compound 0.03162 µM", "value": 0.38}, {"measurement": "relative viability", "setting": "NCI-H1793; first compound 0.1 µM", "value": 0.233}, {"measurement": "relative viability", "setting": "NCI-H1793; first compound 0.3162 µM", "value": 0.505}, {"measurement": "relative viability", "setting": "NCI-H1793; first compound 1 µM", "value": 0.464}, {"measurement": "relative viability", "setting": "201T; first compound 0.01 µM", "value": 0.624}, {"measurement": "relative viability", "setting": "201T; first compound 0.03162 µM", "value": 0.619}, {"measurement": "relative viability", "setting": "201T; first compound 0.1 µM", "value": 0.615}, {"measurement": "relative viability", "setting": "201T; first compound 0.3162 µM", "value": 0.585}, {"measurement": "relative viability", "setting": "201T; first compound 1 µM", "value": 0.583}, {"measurement": "relative viability", "setting": "SW 900; first compound 0.03162 µM", "value": 0.748}, {"measurement": "relative viability", "setting": "SW 900; first compound 0.1 µM", "value": 0.378}, {"measurement": "relative viability", "setting": "SW 900; first compound 0.3162 µM", "value": 0.702}, {"measurement": "relative viability", "setting": "SW 900; first compound 1 µM", "value": 0.497}]}]}
